Measured values: US8648066B2 (Exelixis, Inc., priority 2009, dated 2014)

Target: mTOR/GbL/Raptor (mTORC1) (Homo sapiens, UniProt P42345)
Assay: mTOR/GbL/Raptor (mTORC1) ELISA assay
Type: biochemical
Conditions: phosphorylation of 4E-BP1; 0.2 nM mTORC1, 10 μM ATP; read-out: IC50 in this assay (mTORC1 ELISA)
Outline: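 Human mTORC1 (0.2 nM) phosphorylated 50 nM His-tagged 4E-BP1 with 10 µM ATP in HEPES pH 7.2 containing 10 mM MnCl2, 120 min at ambient temperature. Substrate was captured on Ni-chelate plates; phospho-4E-BP1 was detected by primary antibody and HRP secondary with luminescence.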

Row | SMILES | IC50 [nM]
1 | CC1(C)CCc2ncnc(N3CCOc4ccc(-c5cnc(N)c(S(=O)(=O)NCCN)c5)cc4C3)c2C1 [Example 409, 2-amino-N-(2-aminoethyl)-5-[4-(6,6-dimethyl-5,6,7,8-tetrahydroquinazolin-4-yl)-2,3,4,5-tetrahydro-1,4-benzoxazepin-7-yl]pyridine-3-sulfonamide] | ≤ 10
2 | CN(C)Cc1nc2ncc(-c3ccc4c(c3)CN(c3ncnc5c3CC(C)(C)CC5)CCO4)cc2[nH]1 [Example 357, 1-{6-[4-(6,6-dimethyl-5,6,7,8-tetrahydroquinazolin-4-yl)-2,3,4,5-tetrahydro-1,4-benzoxazepin-7-yl]-1H-imidazo[4,5-b]pyridin-2-yl}-N,N-dimethylmethanamine] | 250 to 1000
3 | COc1ccc2c(N3CCOc4ccc(-c5cnc(NC(C)=O)s5)cc4C3)nc(C)nc2c1 [Example 293, N-(5-{4-[2-methyl-7-(methyloxy)quinazolin-4-yl]-2,3,4,5-tetrahydro-1,4-benzoxazepin-7-yl}-1,3-thiazol-2-yl)acetamide] | ≥ 2000
4 | CNc1ncc(-c2ccc3c(c2)CN(c2ncnc4c2CC(C)(C)CC4)CCO3)cc1S(=O)(=O)NCCO [Example 520, 5-[4-(6,6-dimethyl-5,6,7,8-tetrahydroquinazolin-4-yl)-2,3,4,5-tetrahydro-1,4-benzoxazepin-7-yl]-N-(2-hydroxyethyl)-2-(methylamino)pyridine-3-sulfonamide] | ≤ 10
5 | CC[C@H]1CCc2c(ncnc2N2CCOc3ccc(-c4cnc5nc(NC(=O)OC)[nH]c5c4)cc3C2)C1 [Example 578, methyl (6-{4-[(7S)-7-ethyl-5,6,7,8-tetrahydroquinazolin-4-yl]-2,3,4,5-tetrahydro-1,4-benzoxazepin-7-yl}-1H-imidazo[4,5-b]pyridin-2-yl)carbamate] | 10 to 50
6 | CC(C)(CO)CNS(=O)(=O)c1cc(-c2ccc3c(c2)CN(c2ncnc4c2CC(C)(C)CC4)CCO3)cnc1N [Example 374, 2-amino-5-[4-(6,6-dimethyl-5,6,7,8-tetrahydroquinazolin-4-yl)-2,3,4,5-tetrahydro-1,4-benzoxazepin-7-yl]-N-(3-hydroxy-2,2-dimethylpropyl)pyridine-3-sulfonamide] | 50 to 250
7 | CC1(C)CCc2ncnc(N3CCOc4ccc(-c5cnc6[nH]c(C7CC7)nc6c5)cc4C3)c2C1 [Example 224, 7-(2-cyclopropyl-3H-imidazo[4,5-b]pyridin-6-yl)-4-(6,6-dimethyl-5,6,7,8-tetrahydroquinazolin-4-yl)-2,3,4,5-tetrahydro-1,4-benzoxazepine] | ≤ 10
8 | CN1C[C@@H]2C[C@H]1CN2S(=O)(=O)c1cc(-c2ccc3c(c2)CN(c2ncnc4c2CC(C)(C)CC4)CCO3)cnc1N [Example 518, 5-[4-(6,6-dimethyl-5,6,7,8-tetrahydroquinazolin-4-yl)-2,3,4,5-tetrahydro-1,4-benzoxazepin-7-yl]-3-{[(1S,4S)-5-methyl-2,5-diazabicyclo[2.2.1]hept-2-yl]sulfonyl}pyridin-2-amine] | 50 to 250
9 | Cc1nc2c(c(N3CCOc4ccc(-c5cnc6nc(C)[nH]c6c5)cc4C3)n1)CC(C)(C)CC2 [Example 550, 7-(2-methyl-1H-imidazo[4,5-b]pyridin-6-yl)-4-(2,6,6-trimethyl-5,6,7,8-tetrahydroquinazolin-4-yl)-2,3,4,5-tetrahydro-1,4-benzoxazepine] | ≤ 10
10 | CC1(C)CCc2ncnc(N3CCOc4ccc(-c5cnc(N)c(S(=O)(=O)NC[C@@H]6CCCNC6)c5)cc4C3)c2C1 [Example 386, 2-amino-5-[4-(6,6-dimethyl-5,6,7,8-tetrahydroquinazolin-4-yl)-2,3,4,5-tetrahydro-1,4-benzoxazepin-7-yl]-N-[(3R)-piperidin-3-ylmethyl]pyridine-3-sulfonamide] | 250 to 1000
11 | CC1(C)CCc2ncnc(N3CCOc4ccc(-c5cnc(N)c(S(=O)(=O)N6CCC6)c5)cc4C3)c2C1 [Example 434, 3-(azetidin-1-ylsulfonyl)-5-[4-(6,6-dimethyl-5,6,7,8-tetrahydroquinazolin-4-yl)-2,3,4,5-tetrahydro-1,4-benzoxazepin-7-yl]pyridine-2-amine] | 10 to 50
12 | COC1Cc2nc(CN(C)C)nc(N3CCOc4ccc(-c5cnc6nc(C)[nH]c6c5)cc4C3)c2CC1(C)C (stereo not drawn) [Example 355, 1-{6,6-dimethyl-4-[7-(2-methyl-1H-imidazo[4,5-b]pyridin-6-yl)-2,3-dihydro-1,4-benzoxazepin-4(5H)-yl]-7-(methyloxy)-5,6,7,8-tetrahydroquinazolin-2-yl}-N,N-dimethylmethanamine] | 50 to 250
13 | CC1(C)CCc2ncnc(N3CCOc4ccc(-c5cnc(N)c(S(=O)(=O)N6CCCC(N)C6)c5)cc4C3)c2C1 (stereo not drawn) [Example 444, 3-[(3-aminopiperidin-1-yl)sulfonyl]-5-[4-(6,6-dimethyl-5,6,7,8-tetrahydroquinazolin-4-yl)-2,3,4,5-tetrahydro-1,4-benzoxazepin-7-yl]pyridin-2-amine] | 10 to 50
14 | Cc1nc(CN(C)C)nc(N2CCOc3ccc(-c4cnc5sc(N)nc5c4)cc3C2)c1C [Example 671, 6-(4-{2-[(dimethylamino)methyl]-5,6-dimethylpyrimidin-4-yl}-2,3,4,5-tetrahydro-1,4-benzoxazepin-7-yl)[1,3]thiazolo[5,4-b]pyridin-2-amine] | 250 to 1000

Second part, the compound after the results:

Row | IC50 [nM] | SMILES
15 | ≤ 10 | CC[C@H]1CCc2c(ncnc2N2CCOc3ccc(-c4cnc5nc(C)[nH]c5c4)cc3C2)C1 [Example 488, 4-[(7S)-7-ethyl-5,6,7,8-tetrahydroquinazolin-4-yl]-7-(2-methyl-1H-imidazo[4,5-b]pyridin-6-yl)-2,3,4,5-tetrahydro-1,4-benzoxazepine]
16 | 50 to 250 | Cc1nc2ccc(-c3ccc4c(c3)CN(c3nccc5ccccc35)CCO4)cc2[nH]1 [Example 105, 4-isoquinolin-1-yl-7-(2-methyl-1H-benzimidazol-6-yl)-2,3,4,5-tetrahydro-1,4-benzoxazepine]
17 | ≤ 10 | CCC1CCc2ncnc(N3CCOc4ccc(-c5cnc6nc(C)[nH]c6c5)cc4C3)c2C1 (stereo not drawn) [Example 483, 4-(6-ethyl-5,6,7,8-tetrahydroquinazolin-4-yl)-7-(2-methyl-1H-imidaz[4,5-b]pyridin-6-yl)-2,3,4,5-tetrahydro-1,4-benzoxazepine]
18 | 10 to 50 | Cc1ncnc(N2CCOc3ccc(-c4cnc5nc(N)cn5c4)cc3C2)c1Cc1ccc(F)cc1 [Example 144, 6-(4-{5-[(4-fluorophenyl)methyl]-6-methylpyrimidin-4-yl}-2,3,4,5-tetrahydro-1,4-benzoxazepin-7-yl)imidazo[1,2-a]pyrimidin-2-amine]
19 | 50 to 250 | Cc1nc2ccc(-c3ccc4c(c3)CN(c3ccnc(Nc5ccccc5)n3)CCO4)cc2[nH]1 [Example 253, 4-[7-(2-methyl-1H-benzimidazol-6-yl)-2,3-dihydro-1,4-benzoxazepin-4(5H)-yl]-N-phenylpyrimidin-2-amine]
20 | 10 to 50 | Cc1nc(Nc2ccccc2)c(C)c(N2CCOc3ccc(-c4cnc5nc[nH]c5c4)cc3C2)n1 [Example 530]
21 | 50 to 250 | CCc1c(C(C)C)ncnc1N1CCOc2ccc(-c3ccc4nc(C)[nH]c4c3)cc2C1 [Example 61, 4-[5-ethyl-6-(1-methylethyl)pyrimidin-4-yl]-7-(2-methyl-1H-benzimidazol-6-yl)-2,3,4,5-tetrahydro-1,4-benzoxazepine]
22 | 50 to 250 | Cc1ncnc(N2CCOc3ccc(-c4ccc5[nH]nc(N)c5c4)cc3C2)c1Cc1ccc(F)cc1 [Example 249, 5-(4-{5-[(4-fluorophenyl)methyl]-6-methylpyrimidin-4-yl}-2,3,4,5-tetrahydro-1,4-benzoxazepin-7-yl)-1H-indazol-3-amine]
23 | ≤ 10 | Cc1nc(N)nc(N2CCOc3ccc(-c4cnc5sc(N)nc5c4)cc3C2)c1Cc1ccc(F)cc1 [Example 692, 6-(4-{2-amino-5-[(4-fluorophenyl)methyl]-6-methylpyrimidin-4-yl}-2,3,4,5-tetrahydro-1,4-benzoxazepin-7-yl)[1,3]thiazolo[5,4-b]pyridin-2-amine]
24 | ≤ 10 | Cc1nc(C)c(C(C)C)c(N2CCOc3ccc(-c4cnc5nc(C)[nH]c5c4)cc3C2)n1 [Example 491, 4-[2,6-dimethyl-5-(1-methylethyl)pyrimidin-4-yl]-7-(2-methyl-1H-imidazo[4,5-b]pyridin-6-yl)-2,3,4,5-tetrahydro-1,4-benzoxazepine]
25 | 10 to 50 | COc1ccc2c(N3CCOc4ccc(-c5ccc(-c6ncc[nH]6)cc5)cc4C3)nc(C)nc2c1 [Example 256, 7-[4-(1H-imidazol-2-yl)phenyl]-4-[2-methyl-7-(methyloxy)quinazolin-4-yl]-2,3,4,5-tetrahydro-1,4-benzoxazepine]
26 | 10 to 50 | Cc1nc2ncc(-c3ccc4c(c3)CN(c3ncnc5c3CCC(C)C5)CCO4)cc2[nH]1 (stereo not drawn) [Example 556, 7-(2-methyl-1H-imidazo[4,5-b]pyridin-6-yl)-4-(7-methyl-5,6,7,8-tetrahydroquinazolin-4-yl)-2,3,4,5-tetrahydro-1,4-benzoxazepine]
27 | 50 to 250 | COc1ccc2c(N3CCOc4ccc(-c5cnc(N)s5)cc4C3)nc(C)nc2c1 [Example 292, 5-{4-[2-methyl-7-(methyloxy)quinazolin-4-yl]-2,3,4,5-tetrahydro-1,4-benzoxazepin-7-yl}-1,3-thiazol-2-amine]
28 | ≥ 2000 | COc1ccc2c(N3CCOc4ccc(-c5ccc6[nH]cnc6c5)cc4C3)nc(CN(C)C)nc2c1 [Example 658, 1-{4-[7-(1H-benzimidazol-5-yl)-2,3-dihydro-1,4-benzoxazepin-4(5H)-yl]-7-(methyloxy)quinazolin-2-yl}-N,N-dimethylmethanamine]
29 | ≤ 10 | Cc1nc2ccc(-c3ccc4c(c3)CN(c3ncnc(C)c3Cc3cccc(Cl)c3)CCO4)cc2[nH]1 [Example 73, 4-{5-[(3-chlorophenyl)methyl]-6-methylpyrimidin-4-yl}-7-(2-methyl-1H-benzimidazol-6-yl)-2,3,4,5-tetrahydro-1,4-benzoxazepine]
30 | 250 to 1000 | Cc1nc2ccc(-c3ccc4c(c3)CN(c3ncnc5c3CCCC5)CCO4)cc2[nH]1 [Example 46, 7-(2-methyl-1H-benzimidazol-6-yl)-4-(5,6,7,8-tetrahydroquinazolin-4-yl)-2,3,4,5-tetrahydro-1,4-benzoxazepine]
